# Measured values as given in patent US4260806A, “Carbocyclic thromboxane A2 analogues” (priority 1979, dated 1981).
# Where two headings read alike, the source gives them in different places.
# What was measured:
# [1] = test system: New Zealand white rabbits; assay: effect of CTA2 on intact anesthetized rabbits; format: in vivo, rabbit
# Procedure: To study the effect of CTA2 on intact animals, New Zealand white rabbits 2-3.5 kg were anesthetized with pentobarbital sodium (25 mg/kg) and placed in the supine position. The right femoral and external jugular veins and the left common carotid artery were cannulated with polyethylene catheters. Standard limb needle electrodes were placed subcutaneously for recording the electrocardiogram (ECG). The trachea was cannulated with a glass tube connected to a pressure transducer for the recording of airway pressure. Mean arterial blood pressure (MABP), central venous pressure (CVP), airway pressure, and lead III of the ECG were continuously recorded on a Grass Model 7 oscillographic recorder. Sodium arachidonate (95% pure, Sigma Chamical) at 2.0 mg/kg or CTA2 (125 μg/kg) were injected into the […], and the rabbit observed until death. Two ml blood samples were drawn into 25 mM EDTA just prior to injection of drug and just prior to death for radio-immunoassay of thromboxane B2.
# [2] = test system: formation of thromboxane B2; assay: formation of thromboxane B2
# [3] = test system: human platelet-rich plasma; assay: platelet aggregation in citrated human platelet-rich plasma (aggregometer); format: cell-based
# Procedure: Platelet aggregation was studied in an aggregometer (Chronolog Corp., Phila., PA) using 0.5 ml citrated human platelet-rich plasma at 35° C. One minute after addition of analogue (up to 2 μl of a 25 mM solution in ethanol) aggregation was initiated by addition of sodium arachidonate (0.3-0.5 mM), ADP (2 μM) collagen (1 μg/ml), epinephrine (50 μM), 9,11-azo-PGH2 (0.1-0.6 μM). The analogues were also tested for their effects on the inhibition of ADP-induced aggregation by 2 nM prostacyclin or 20 nM prostaglandin D2.
# cat coronary arteries = assay: constriction of isolated perfused cat coronary arteries (perfusion pressure at constant flow); format: cell-based
# Procedure: Thromboxane A2 analogues (up to 4 μl of a 2.5 mM solution in ethanol) were tested for their effects on cat coronary arteries continuously perfused with 10 ml Krebs-Henseleit solution as described below.
# Cats of either sex (2.5-3.5 kg) were anesthetized with sodium pentobarbital (30 mg/kg) given intravenously. […] A 20-gauge stainless steel cannula was inserted into the right coronary artery via the coronary ostium. Distal to the cannula, approximately 1 cm of coronary artery was dissected free of surrounding tissue. The section of right coronary artery with the cannula in place was excised from the heart and immediately transferred to a constant flow perfusion apparatus.
# The perfusion apparatus consists of a reservoir containing 20 ml of warm (37° C.) oxygenated (95% O2 +5% CO2) K-H solution which bathes the coronary artery and serves as recirculating perfusate. An increase in perfusion pressure signifies […]. Following an initial 1 hr. equilibrium period, vascular responsiveness was established by adding 25 mM KCl. […] Fresh K-H dilutions of stock thromboxane analog concentrations were added to the perfusate reservoir in 0.1-0.2 ml volumes. […] Constriction of the arteries was induced by addition of 15 or 30 nM 9,11-azo-prostaglandinendoperoxide (azo-PGH2), or 1 μM 9,11-methanoepoxy-PGH2.
# [4] = test system: blood platelet aggregation; conditions: literature; cited from earlier work
# [5] = cited from earlier work
# coronary artery = conditions: normal and high concentrations; literature; cited from earlier work
structure (smiles),measurement,setting,value
"CCCCC[C@H](O)/C=C/C1CC2CC(C2)C1C/C=C\CCCC(=O)O (stereo partly drawn) [CTA2, Carbocyclic Thromboxane A2, free acid]",time of death after injection,"[1]; anesthetized rabbit, 125 μg/kg intravenously, typical response",nine
same,sudden cardiac death in rabbits,[1]; severe myocardial ischemia without coronary thrombosis,induces sudden cardiac death
same,inhibition of the formation of thromboxane B2,[2],selectively inhibits
same,inhibition of arachidonic acid induced platelet aggregation,[3],potent inhibitor
same,intrinsic ability to aggregate platelets,[3],no intrinsic ability to agreggate plateletes
same,effect on arachidonic acid induced aggregation,[3]; 1-2 μM,delayed the onset of platelet aggregation without actually inhibiting the magnitude of the overall response
same,inhibition of platelet aggregation to a variety of prostanoids,"[3]; arachidonic acid, 9-11-azo PGH2, 9,11-methanoepoxy PGH2 and 9,11-epoxymethano PGH2",very potent inhibitor
same,prevention of induced platelet aggregation,[3]; at 4 to 5 μM,completely prevented
same,prevention of induced platelet aggregation,"[3]; lower concentrations, 1 to 4 μM",only partially protective
same,induction of platelet aggregation in vitro,[3]; up to concentrations of 100 μM,failed to induce platelet aggregation
same,rank order of constrictor potency,"cat coronary arteries; CTA2 vs azo-PGH2 >9,11-methanoepoxy-PGH2 >9,11 epoxymethano-PGH2 >>PGH2 >>Thromboxane B2",more potent a constrictor
same,vasoconstricting potency compared with natural thromboxane A2,cat coronary arteries; cat coronary arteries,potencies comparable to those of the natural thromboxane A2
same,"antagonism of the coronary constrictor effects of 9,11-methanoepoxy PGH2",cat coronary arteries; concentrations up to 10^-7 M,did not antagonize
same,constriction (increased perfusion pressure at constant flow),cat coronary arteries; isolated perfused cat coronary arteries,dose-dependent constriction
same,"potency relative to 9,11-azo PGH2 (EC20)","cat coronary arteries; relative to 9,11-azo PGH2",4 times
same,potency relative to the other two PGH2 derivatives (EC20),"cat coronary arteries; relative to 9,11-methanoepoxy PGH2 and 9,11-epoxymethano PGH2",5-6 times
same,"potency relative to TB2, by concentration giving a 20 mm Hg increase in coronary perfusion pressure (EC20)",cat coronary arteries; relative to TB2,"10,000 times"
"CCCCCC/C=C/C1C2CC(N=N2)C1C/C=C\CCCC(=O)O (stereo not drawn) [15-deoxy-9, 11-azo-PGH2]",effect on platelet aggregation,[4],inhibits platelet aggregation
"CCCCC[C@H](O)/C=C/[C@@H]1[C@H]2C/C(=C/CCCC(=O)O)O[C@H]2C[C@H]1O [prostacyclin, 6,9 α-oxido-11α, 15 α-dihydroxyprosta (Z), 5, E (13)-dienoic acid]",effect on platelet aggregation,[4],most potent inhibitor of blood platelet aggregation
same,half-life,[5]; physiological conditions,about 2 minutes
"CCCCC[C@@H](O)/C=C/[C@H]1C[C@H]2C[C@@H]([C@@H]1C/C=C\CCCC(=O)O)C2(C)C [PTA2, pinane thromboxane A2, reference compound]",antagonism of the coronary constrictor effects of CTA2,cat coronary arteries,almost completely antagonized
same,effect on coronary artery contraction,coronary artery,inhibits coronary artery contraction
"CCCCC[C@H](O)/C=C/[C@H]1O[C@H]2C[C@H](O2)[C@@H]1C/C=C\CCCC(=O)O [TA2, thromboxane A2]",half-life,[5]; pH 7.4 and 37° C.,30 s
"CCCCCC/C=C/C1C2CC(ON2)C1C/C=C\CCCC(=O)O (stereo not drawn) [15-deoxy-9,11-epoxyimino-PGH2]",effect on platelet aggregation,[4],inhibits platelet aggregation
